# Assay results reported in patent publication US8536202B2, “Triazole-substituted anthranilamides as pesticides” (Bayer Cropscience AG, priority 2010, dated 2013).
# Like-named read-outs stand apart in the source and are kept apart here.
# Experiments:
# [1] = system: larvae of the mustard beetle (Phaedon cochleariae); test: Phaedon test (PHAECO spray treatment); format: in vivo; conditions: 168 h, 100 g/ha, after 7 days, read-out: activity in %
# In short: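 Compound dissolved in acetone/dimethylformamide with alkylaryl polyglycol ether emulsifier, then diluted with emulsifier-containing water to test concentration for spray treatment of Phaedon cochleariae larvae. Activity scored after 7 days as % larvae killed (100% = all dead, 0% = none).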
# [2] = log P determination by HPLC on reversed-phase columns (EEC Directive 79/831 Annex V.A8); format: physicochemical; conditions: pH 2.7
# In short: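 log P from reversed-phase LC-MS retention at pH 2.7, 0.1% formic acid water/acetonitrile gradient 10–95% acetonitrile. Calibrated against C3–C16 unbranched alkan-2-ones, interpolating linearly between adjacent alkanones.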
# [3] = system: caterpillars of the armyworm (Spodoptera frugiperda); test: Spodoptera frugiperda test (SPODFR spray treatment); format: in vivo; conditions: 168 h, 100 g/ha, after 7 days, read-out: activity in %
# In short: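 Maize leaf discs sprayed with compound diluted in emulsifier-containing water (acetone/DMF solvent, alkylaryl polyglycol ether emulsifier), dried, then infested with armyworm caterpillars. Kill scored after 7 days as % mortality, 100% = all caterpillars dead, 0% = none.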
# [4] = reversed-phase C18 HPLC column, HPLC on reversed-phase columns (C 18), EEC Directive 79/831 Annex V.A8, read-out: logP
SMILES,pest or weed control at 100 g/ha [1],chromatographic logP [2],pest or weed control at 100 g/ha [3],"chromatographic logP [2, 4]"
CNC(=O)c1cc(Cl)cc(C)c1NC(=O)c1cc(Cn2nc3ccc([N+](=O)[O-])cc3n2)nn1-c1ncccc1Cl [Example 75],100%,2.95,100%,
CNC(=O)c1cc(Cl)cc(C)c1NC(=O)c1cc(Cn2nc3cc(Cl)c(Cl)cc3n2)nn1-c1ncccc1Cl [Example 77],100%,3.73,100%,
CNC(=O)c1cc(Cl)cc(C)c1NC(=O)c1cc(Cn2nc3ccc(F)cc3n2)nn1-c1ncccc1Cl [Example 79],100%,2.89,100%,
CNC(=O)c1cc(C#N)cc(C)c1NC(=O)c1cc(Cn2nc3cc(Cl)c(Cl)cc3n2)nn1-c1ncccc1Cl [Example 81],100%,3.35,100%,
CNC(=O)c1cc(Cl)cc(C)c1NC(=O)c1cc(Cn2nnc3cc(Br)ccc32)nn1-c1ncccc1Cl [Example 86],100%,2.94,100%,
CNC(=O)c1cc(Cl)cc(C)c1NC(=O)c1cc(Cn2nc3ccc(Br)cc3n2)nn1-c1ncccc1Cl [Example 87],100%,3.39,100%,
CNC(=O)c1cc(Cl)cc(C)c1NC(=O)c1cc(Cn2nnc3c(Cl)c(Cl)c(Cl)cc32)nn1-c1ncccc1Cl [Example 88],100%,3.75,100%,
CNC(=O)c1cc(Cl)cc(C)c1NC(=O)c1cc(Cn2nnc3c(Cl)cc(C(F)(F)F)cc32)nn1-c1ncccc1Cl [Example 89],100%,3.59,100%,
CNC(=O)c1cc(Cl)cc(C)c1NC(=O)c1cc(Cn2nnc3c(Br)cc(OC(F)(F)F)cc32)nn1-c1ncccc1Cl [Example 90],100%,3.74,100%,
CNC(=O)c1cc(Cl)cc(C)c1NC(=O)c1cc(Cn2nc3cc(OC(F)(F)F)cc(Br)c3n2)nn1-c1ncccc1Cl [Example 91],100%,4.17,100%,
CNC(=O)c1cc(C#N)cc(C)c1NC(=O)c1cc(Cn2nnc3c(Cl)c(Cl)c(Cl)c(Cl)c32)nn1-c1ncccc1Cl [Example 92],100%,3.79,100%,
CNC(=O)c1cc(C#N)cc(C)c1NC(=O)c1cc(Cn2nnc3cc(Br)ccc32)nn1-c1ncccc1Cl [Example 94],100%,2.66,100%,
CNC(=O)c1cc(C#N)cc(C)c1NC(=O)c1cc(Cn2nc3ccc(Br)cc3n2)nn1-c1ncccc1Cl [Example 95],100%,3.01,100%,
CNC(=O)c1cc(C#N)cc(C)c1NC(=O)c1cc(Cn2nnc3c(Cl)c(Cl)c(Cl)cc32)nn1-c1ncccc1Cl [Example 96],100%,3.42,100%,
CNC(=O)c1cc(C#N)cc(C)c1NC(=O)c1cc(Cn2nnc3cc(Br)c(C(F)(F)F)cc32)nn1-c1ncccc1Cl [Example 97],100%,3.27,100%,
CNC(=O)c1cc(C#N)cc(C)c1NC(=O)c1cc(Cn2nnc3c(Cl)cc(C(F)(F)F)cc32)nn1-c1ncccc1Cl [Example 98],100%,3.24,100%,
CNC(=O)c1cc(C#N)cc(C)c1NC(=O)c1cc(Cn2nnc3c(Br)cc(OC(F)(F)F)cc32)nn1-c1ncccc1Cl [Example 99],100%,3.37,100%,
CNC(=O)c1cc(C#N)cc(C)c1NC(=O)c1cc(Cn2nc3cc(OC(F)(F)F)cc(Br)c3n2)nn1-c1ncccc1Cl [Example 100],100%,3.78,100%,
CNC(=O)c1cc(C#N)cc(C)c1NC(=O)c1cc(Cn2nc3ccc(C(F)(F)F)cc3n2)nn1-c1ncccc1Cl [Example 102],100%,3.19,100%,
Cc1cc(C#N)cc(C(=O)NC(C)(C)C)c1NC(=O)c1cc(Cn2nc3ccc(Br)cc3n2)nn1-c1ncccc1Cl [Example 107],100%,3.85,100%,
Cc1cc(C#N)cc(C(=O)NC(C)(C)C)c1NC(=O)c1cc(Cn2nnc3c(Cl)c(Cl)c(Cl)cc32)nn1-c1ncccc1Cl [Example 108],100%,4.18,100%,

SMILES,pest or weed control at 100 g/ha [1],chromatographic logP [2],pest or weed control at 100 g/ha [3],"chromatographic logP [2, 4]"
Cc1cc(C#N)cc(C(=O)NC(C)(C)C)c1NC(=O)c1cc(Cn2nnc3cc(Br)c(C(F)(F)F)cc32)nn1-c1ncccc1Cl [Example 109],100%,,100%,4.02
Cc1cc(C#N)cc(C(=O)NC(C)(C)C)c1NC(=O)c1cc(Cn2nnc3c(Br)cc(OC(F)(F)F)cc32)nn1-c1ncccc1Cl [Example 111],100%,,100%,4.09
Cc1cc(C#N)cc(C(=O)NC(C)(C)C)c1NC(=O)c1cc(Cn2nc3cc(OC(F)(F)F)cc(Br)c3n2)nn1-c1ncccc1Cl [Example 112],100%,,100%,4.59
Cc1cc(C#N)cc(C(=O)NC(C)(C)C)c1NC(=O)c1cc(Cn2nnc3cc(C(F)(F)F)ccc32)nn1-c1ncccc1Cl [Example 113],100%,3.5,100%,
Cc1cc(C#N)cc(C(=O)NC(C)(C)C)c1NC(=O)c1cc(Cn2nc3ccc(C(F)(F)F)cc3n2)nn1-c1ncccc1Cl [Example 114],100%,3.94,100%,
Cc1cc(Cl)cc(C(=O)NC(C)C2CC2)c1NC(=O)c1cc(Cn2ccnn2)nn1-c1ncccc1Cl (stereo not drawn) [Example 117],100%,2.41,100%,
CNC(=O)c1cc(Cl)cc(C)c1NC(=O)c1cc(Cn2nccn2)nn1-c1ncccc1Cl [Example 118],100%,2.03,100%,
Cc1cc(Cl)cc(C(=O)NC(C)C)c1NC(=O)c1cc(Cn2nccn2)nn1-c1ncccc1Cl [Example 119],100%,2.5,100%,
Cc1cc(Cl)cc(C(=O)NC(C)C2CC2)c1NC(=O)c1cc(Cn2nccn2)nn1-c1ncccc1Cl (stereo not drawn) [Example 122],100%,2.81,100%,
CCNC(=O)c1cc(Cl)cc(C)c1NC(=O)c1cc(Cn2ncc(C(F)(F)F)n2)nn1-c1ncccc1Cl [Example 138],100%,3.26,100%,
Cc1cc(Cl)cc(C(=O)NC(C)(C)C)c1NC(=O)c1cc(Cn2ncc(C(F)(F)F)n2)nn1-c1ncccc1Cl [Example 140],100%,3.85,100%,
Cc1cc(Cl)cc(C(=O)NCC2CC2)c1NC(=O)c1cc(Cn2ncc(C(F)(F)F)n2)nn1-c1ncccc1Cl [Example 141],100%,3.55,100%,
Cc1cc(Cl)cc(C(=O)NC2CCC2)c1NC(=O)c1cc(Cn2ncc(C(F)(F)F)n2)nn1-c1ncccc1Cl [Example 142],100%,3.64,100%,
NC(=O)c1cc(Cl)cc(Cl)c1NC(=O)c1cc(Cn2ncc(C(F)(F)F)n2)nn1-c1ncccc1Cl [Example 145],100%,2.69,100%,
O=C(NC1CC1)c1cc(Cl)cc(Cl)c1NC(=O)c1cc(Cn2ncc(C(F)(F)F)n2)nn1-c1ncccc1Cl [Example 148],100%,3.18,100%,
CCNC(=O)c1cc(Cl)cc(Cl)c1NC(=O)c1cc(Cn2ncc(C(F)(F)F)n2)nn1-c1ncccc1Cl [Example 149],100%,3.2,100%,
O=C(NCC1CC1)c1cc(Cl)cc(Cl)c1NC(=O)c1cc(Cn2ncc(C(F)(F)F)n2)nn1-c1ncccc1Cl [Example 152],100%,3.48,100%,
O=C(NC1CCC1)c1cc(Cl)cc(Cl)c1NC(=O)c1cc(Cn2ncc(C(F)(F)F)n2)nn1-c1ncccc1Cl [Example 153],100%,3.56,100%,
N#CCNC(=O)c1cc(Cl)cc(Cl)c1NC(=O)c1cc(Cn2ncc(C(F)(F)F)n2)nn1-c1ncccc1Cl [Example 154],100%,2.9,100%,
Cc1cc(I)cc(C(=O)NC(C)C2CC2)c1NC(=O)c1cc(Cn2ncc(C(F)(F)F)n2)nn1-c1ncccc1Cl (stereo not drawn) [Example 158],100%,4.05,100%,
